In patent publication US5900250A, “Monoglyceride/lactate ester permeation enhancer for oxybutnin” (ALZA Corporation, priority 1998, dated 1999):
Values belong to the molecule of their own block, whether it stands above or below them.

Tests used:
[1] = solubility of glycerol monolaurate in lauryl lactate / EVA 40; format: physicochemical; conditions: for Wt % GML in solution: based on GML solubility of 350 mg/g
Description: The unexpected effects of the specific weight percentages of the components of the permeation enhancer mixture are believed to be due, in part, to the solubility of the monoglyceride in the lactic acid ester. It is known that monoglycerides by themselves are effective permeation enhancers. The enhancement occurs by the solubilization of the monoglyceride in the lipid layer of the skin. The solubilization of the monoglyceride in the lipid layer increases as a function of lactic acid ester concentration. […] Thus, the amount of GML dissolved, ie, free GML, is dictated by and proportional to the lauryl lactate loading in the polymer.

[2] = aqueous solution 25 mg/mL, 0.05 M isotonic phosphate buffer, 20 μm polybutadiene film, cited from earlier work
[3] = format: in vivo, human; conditions: after the initial application; transdermal with permeation enhancing mixture
Method: Therapeutic blood levels can be achieved within approximately 6-10 hours after the initial application, and blood concentrations are maintained with subsequent system applications. The range of desired and achievable system permeation rates of oxybutynin, arriving through the skin from a limited area, is 1-20 mg over a period of 24 hours. The system application is easily adapted for shorter or longer duration treatments, but generally 72 hours is the duration for a single application.

[4] = in vitro permeation of oxybutynin through human epidermis at 35° C., EVA 40 systems on horizontal permeation cells (Examples 4-5); format: in vitro ADME; conditions: R- or S-oxybutynin versus racemate
Method: Oxybutynin, glycerol monolaurate and lauryl lactate were then added.
When EVA 40 was used the mixture was blended, cooled and calendered to a 5 mil thick film. This film was then laminated to an acrylic contact adhesive (MSP041991P, 3M) on one side and Medpar® backing (3M) on the opposite side. The laminate was then cut into 2.54 cm^2 circles using a stainless steel punch. Circular pieces of human-epidermis were mounted on horizontal permeation cells with the stratum corneum facing the donor compartment of the cell. The release liner of the system was then removed and the system was centered over the stratum corneum side of the epidermis.

Wt % GML in solution ([1]; 12% lauryl lactate in EVA 40): 4.2% | Wt % GML in solution ([1]; 20% lauryl lactate in EVA 40): 7.0% | Wt % GML in solution ([1]; 27% lauryl lactate in EVA 40): 9.5% | Wt % GML in solution ([1]; 30% lauryl lactate in EVA 40): 10.5% | solubility in EVA 40 matrix ([1]; EVA 40 matrix): practically insoluble | solubility of glycerol monolaurate in lauryl lactate ([1]; solution stirred): 350 mg/g of solution
SMILES: CCCCCCCCCCCC(=O)OCC(O)CO (centres unmarked) [GML, glycerol monolaurate]

SMILES: CCN(CC)CC#CCOC(=O)C(O)(c1ccccc1)C1CCCCC1 (centres unmarked) [Oxybutynin]
in vitro release rate (per area) [2]: ~10 μg/cm^2.hr | in vitro release rate (amount over 24 hours) ([2]; through a 49 cm^2 area): approximately 12 mg over 24 hours | time to therapeutic blood levels [3]: 6 to 10 h

SMILES: CCN(CC)CC#CCOC(=O)[C@](O)(c1ccccc1)C1CCCCC1 [R-oxybutynin]
flux of enantiomer relative to racemate, in words [4]: approximately equivalent to that of the racemate

SMILES: CCN(CC)CC#CCOC(=O)[C@@](O)(c1ccccc1)C1CCCCC1 [S-oxybutynin]
flux of enantiomer relative to racemate, in words [4]: approximately equivalent to that of the racemate
